What follows are molecules tested on HT-29 colon adenocarcinoma (assay: MTT cell antiproliferative assay, HT-29 (without or with verapamil)). Details: Homo sapiens, HT-29; MTT, 72 h.
Format: cell-based, human

Row | SMILES | IC50 [nM]
1 | COc1cc(C(=O)c2cccc(N(C)C)c2)cc(OC)c1OC [Compound 1f, (3-(Dimethylamino)phenyl)(3,4,5-trimethoxyphenyl)methanone] | 460
2 | COc1cc(C(=O)c2ccnc(N3CCCC3)c2)cc(OC)c1OC [Compound 1h, (2-(Pyrrolidin-1-yl)pyridin-4-yl)(3,4,5-trimethoxyphenyl)methanone] | 71
3 | C=C(c1ccc(N(C)C)nc1)c1cc(OC)c(OC)c(OC)c1 [Compound 3b, N,N-Dimethyl-5-(1-(3,4,5-trimethoxyphenyl)vinyl)pyridin-2-amine] | 277
4 | COc1cc(C=Cc2ccc(N(C)C)nc2)cc(OC)c1OC [Compound 8b, N,N-dimethyl-5-(3,4,5-trimethoxystyryl)pyridin-2-amine] | 78

Source: PMC6930638, “The Masked Polar Group Incorporation (MPGI) Strategy in Drug Design: Effects of Nitrogen Substitutions on Combretastatin and Isocombretastatin Tubulin Inhibitors” (Molecules, 2019)
